Like-named read-outs stand apart in the source and are kept apart here.
Key:
[1] = tested on: Human breast cancer cell line T47D; experiment: Cell based caspase-3 activity assay: potentiation of MMS induced apoptosis; details: T47D cells, 11.1 μg/ml MMS, 24 hours, intracellular caspase-3 activity, read-out: EC50 (nM), potentiation of the apoptosis inducing activity of MMS
Excerpt: Determination of the synergistic potentiation effect of 1-(3-(4-(pyrimidin-2-yl)piperazine-1-carbonyl)benzyl)quinazoline-2,4(1H,3H)-dione and analogs on MMS induced apoptosis using a cell based caspase-3 activity assay
Human breast cancer cell line T47D was used to determine the potentiation effect of PARP inhibitors on the apoptosis inducing activity of DNA damaging anticancer drugs such as MMS. Intracellular caspase-3 activity was used to measure cell apoptosis. The dose response effect of MMS to induce intracellular caspase activity was carefully titrated and the concentration that only induces a minimal level of caspase activity was used to test the potentiation effect of PARP inhibitors. Briefly, T47D cells were grown in DMEM/F12 cell culture medium (Hyclone) supplemented with 0.2 U/ml insulin (Genview) and 10% FBS (Hyclone). A day before experiment, 20000 of T47D cells were seeded to each well of a 96-well cell culture plate and maintained at 37° C. and 5% CO2 in a cell culture incubator overnight. On the day of experiment, cell culture medium was removed. One hundred and eighty μl of fresh medium containing 11.1 μg/ml MMS was added to each well and followed by 20 μl medium containing 10 folds of the concentrations of experimental drugs or reference compounds (ADZ2281 and ABT-888). The serial dilutions of the compounds to be tested and the reference compounds were made in a 1:3 and 1:10 fashion in DMSO. The 10-fold compound solutions were made by mixing 10 μl DMSO serial dilution solutions with 90 μl fresh growth medium. Twenty four hours later, the cells in the 96-well plates were centrifuged at 1000 g for 5 min and the supernatants were removed. Fifty μl lysis buffer (10 mM Tris, pH7.5, 0.1M NaCl, 1 mM EDTA, 0.01% Triton X-100) was added to each well and the plates were shaked horizontally for 30 min at 4° C. After centrifugation at 1000 g at 4° C. for 10 min, 20 μl of supernatant was transferred from each well to a corresponding well in a 384-well black plate. Twenty μl of buffer (20 mM PIPES, pH7.4, 4 mM EDTA and 0.2% CHAPS) containing 20 μM fluorescent caspase-3 substrate ((Ac-DEVD)2-R110, AnaSpec Cat #60304-5) was added to each well afterwards. The plates were shaked to uniformly mix the wells and incubated at 37° C. for 3 h. The fluorescence intensity was measured using the following wavelength: ex: 496 nm, em: 520 nm using a fluorescence plate reader (Varioskan Flash, Thermo Fisher Scientific). The caspase-3 activity induced by the compounds was expressed as a relative fluorescence unit (RFU). The obtained fluorescence readings were analyzed using a commercial graphic software (GraphPad Prism 5) and plotted against the Log value of the compound concentrations. The EC50 values were obtained by fitting the data points with the equation of Y (fluorescence reading)=minimal fluorescence reading+(maximal fluorescence reading−minimal fluorescence reading)/(1+10^(Log EC50−Log C)), where C is the concentration of the testing compound.
The synergistic potentiation effect of compounds on MMS induced apoptosis in T47D cells is expressed as EC50 values and listed in Table 2.

[2] = tested on: SW620 human colorectal cancer cells; experiment: MTT based cell viability assay: potentiation of the growth inhibiting activity of MMS
Procedure: Briefly, SW620 human colorectal cancer cells were used to measure the cell growth inhibiting activity of DNA alkylating anticancer drug MMS. […] SW620 cells were grown and maintained in RPMI1640 (Gibco) medium supplemented with 10% FBS (Hyclone). In the first day of experiment, 4000 cells were seeded to each well of a 96-well cell culture plate and incubated at 37° C. and 5% CO2 in a cell culture incubator overnight. In the next day, the cell culture medium was removed. […] The serial dilutions of the reference compounds and the compounds to be tested were made with a 1:3 and 1:10 fashion in DMSO. The 10-fold concentrated solutions of these compounds were made by mixing 10 μl of the serial dilutions in DMSO with 90 μl fresh medium. The final concentration of DMSO in the medium was 1%. The cells were incubated at 37° C. in 5% CO2 cell culture incubator for additional 5 days (120 hours). Afterwards, the 96-well cell culture plate was taken out and 20 μl of MTT solution was added to each well and incubated at 37° C. for 4 h. The medium was removed and 100 μl DMSO was added to each well. The 96-well cell culture plates were shaked adequately for 10 min and read in a Varioskan Flash plate reader (Thermo Fisher Scientific) at 520 and 690 nm. The data were analyzed by Prism 5 software (GraphPad). The obtained 520 nm absorbance readings subtracting corresponding 690 nm reading were analyzed and plotted against the Log scale of the compound concentrations.

[3] = Homo sapiens, SW-620, 120 h, read-out: IC50 (nM), potentiation of the growth inhibiting activity of MMS, SW620 cells, 1.7 μg/ml MMS, 5 days (120 hours), MTT

Row | EC50 ([1]; Homo sapiens, T47D, 24 h) [nM] | IC50 [2, 3] [nM] | EC50 [1] [nM] | IC50 ([2]; read-out: IC50 (nM), potentiation of the growth inhibiting activity of MMS, SW620 cells, 1.7 μg/ml MMS, 5 days (120 hours), MTT) [nM] | SMILES
1 | > 10000 | > 10000 | – | – | O=C(c1ccc(Cn2c(=O)[nH]c(=O)c3ccccc32)cc1)N1CCN(c2ccccn2)CC1 [Example 94, 1-(4-(4-(Pyridin-2-yl)piperazine-1-carbonyl)benzyl)quinazoline-2,4(1H,3H)-dione]
2 | > 10000 | > 10000 | – | – | COc1ccc(C(=O)N2CCN(C(=O)c3ccc(Cn4c(=O)[nH]c(=O)c5ccccc54)cc3)CC2)cc1 [Example 95, 1-(4-(4-(4-Methoxybenzoyl)piperazine-1-carbonyl)benzyl)quinazoline-2,4(1H,3H)-dione]
3 | > 10000 | > 10000 | – | – | O=C(c1ccc(F)cc1)N1CCN(C(=O)c2ccc(Cn3c(=O)[nH]c(=O)c4ccccc43)cc2)CC1 [Example 96, 1-(4-(4-(4-Fluorobenzoyl)piperazine-1-carbonyl)benzyl)quinazoline-2,4(1H,3H)-dione]
4 | > 10000 | > 10000 | – | – | O=C(c1ccc(Cn2c(=O)[nH]c(=O)c3ccccc32)cc1)N1CCN(c2ncccn2)CC1 [Example 97, 1-(4-(4-(Pyrimidin-2-yl)piperazine-1-carbonyl)benzyl)quinazoline-2,4(1H,3H)-dione]
5 | > 10000 | > 10000 | – | – | O=C(c1ccc(Br)cc1)N1CCN(C(=O)c2ccc(Cn3c(=O)[nH]c(=O)c4ccccc43)cc2)CC1 [Example 98, 1-(4-(4-(4-Bromobenzoyl)piperazine-1-carbonyl)benzyl)quinazoline-2,4(1H,3H)-dione]
6 | > 10000 | > 10000 | – | – | O=C(c1ccc(Cn2c(=O)[nH]c(=O)c3ccccc32)cc1)N1CCN(C(=O)C2CCCC2)CC1 [Example 99, 1-(4-(4-(Cyclopentylcarbonyl)piperazine-1-carbonyl)benzyl)quinazoline-2,4(1H,3H)-dione]
7 | 26 | 87 | – | – | O=C(c1cccc(Cn2c(=O)[nH]c(=O)c3c(Cl)cccc32)c1)N1CCN(C(=O)C2CCCCC2)CC1 [Example 102, 5-Chloro-1-(3-(4-(cyclohexylcarbonyl)piperazine-1-carbonyl)benzyl)quinazoline-2,4(1H,3H)-dione]
8 | 217 | 105 | – | – | O=C(c1cc(Cn2c(=O)[nH]c(=O)c3c(Cl)cccc32)ccc1F)N1CCN(c2ccccn2)CC1 [Example 106, 5-Chloro-1-(4-fluoro-3-(4-(pyridin-2-yl)piperazine-1-carbonyl)benzyl)quinazoline-2,4(1H,3H)-dione]
9 | 68 | 78 | – | – | O=C(c1ccc(F)c(Cn2c(=O)[nH]c(=O)c3c(Cl)cccc32)c1)N1CCN(C(=O)C2CCCCC2)CC1 [Example 108, 5-Chloro-1-(3-(4-(cyclohexylcarbonyl)piperazine-1-carbonyl)-6-fluorobenzyl)quinazoline-2,4(1H,3H)-dione]
10 | 23 | 48 | – | – | O=C(c1ccc(F)c(Cn2c(=O)[nH]c(=O)c3c(Cl)cccc32)c1)N1CCN(C(=O)C2CCCC2)CC1 [Example 109, 5-Chloro-1-(3-(4-(cyclopentylcarbonyl)piperazine-1-carbonyl)-6-fluorobenzyl)quinazoline-2,4(1H,3H)-dione]

The next lines start with the compound.

Row | SMILES | EC50 ([1]; Homo sapiens, T47D, 24 h) [nM] | IC50 [2, 3] [nM] | EC50 [1] [nM] | IC50 ([2]; read-out: IC50 (nM), potentiation of the growth inhibiting activity of MMS, SW620 cells, 1.7 μg/ml MMS, 5 days (120 hours), MTT) [nM]
11 | O=C(c1cccc(Cn2c(=O)[nH]c(=O)c3ccccc32)c1)N1CCN(S(=O)(=O)C2CCCCC2)CC1 [Example 75, 1-(3-(4-(Cyclohexylsulfonyl)piperazine-1-carbonyl)benzyl)quinazoline-2,4(1H,3H)-dione] | 2870 | 2660 | – | –
12 | O=C(c1cccc(Cn2c(=O)[nH]c(=O)c3ccc(F)cc32)c1)N1CCN(C(=O)C2CCCC2)CC1 [Example 77, 1-(3-(4-(Cyclopentylcarbonyl)piperazine-1-carbonyl)benzyl)-7-fluoroquinazoline-2,4(1H,3H)-dione] | 5210 | 2960 | – | –
13 | O=C(c1cccc(Cn2c(=O)[nH]c(=O)c3ccc(F)cc32)c1)N1CCN(c2ncccn2)CC1 [Example 78, 7-Fluoro-1-(3-(4-(pyrimidin-2-yl)piperazine-1-carbonyl)benzyl)quinazoline-2,4(1H,3H)-dione] | 112 | 269 | – | –
14 | Cc1ccc2c(=O)[nH]c(=O)n(Cc3cccc(C(=O)N4CCN(C(=O)C5CCCC5)CC4)c3)c2c1 [Example 79, 1-(3-(4-(Cyclopentylcarbonyl)piperazine-1-carbonyl)benzyl)-7-methylquinazoline-2,4(1H,31H)-dione] | – | – | 3220 | 5540
15 | Cc1ccc2c(=O)[nH]c(=O)n(Cc3cccc(C(=O)N4CCN(c5ncccn5)CC4)c3)c2c1 [Example 80, 7-Methyl-1-(3-(4-(pyrimidin-2-yl)piperazine-1-carbonyl)benzyl)quinazoline-2,4(1H,3H)-dione] | 1190 | > 10000 | – | –
16 | Cc1ccc2c(c1)c(=O)[nH]c(=O)n2Cc1cccc(C(=O)N2CCN(C(=O)C3CCCC3)CC2)c1 [Example 82, 1-(3-(4-(Cyclopentylcarbonyl)piperazine-1-carbonyl)benzyl)-6-methylquinazoline-2,4(1H,3H)-dione] | 154 | 459 | – | –
17 | Cc1ccc2c(c1)c(=O)[nH]c(=O)n2Cc1ccc(F)c(C(=O)N2CCN(C(=O)C3CCCCC3)CC2)c1 [Example 84, 1-(3-(4-(Cyclohexylcarbonyl)piperazine-1-carbonyl)-4-fluorobenzyl)-6-methylquinazoline-2,4(1H,3H)-dione] | 18 | 52 | – | –
18 | O=C(c1cccc(Cn2c(=O)[nH]c(=O)c3cc(Br)ccc32)c1)N1CCN(C(=O)C2CCCCC2)CC1 [Example 86, 6-Bromo-1-(3-(4-(cyclohexylcarbonyl)piperazine-1-carbonyl)benzyl)quinazoline-2,4(1H,3H)-dione] | 27 | 86 | – | –
19 | O=C(c1cccc(Cn2c(=O)[nH]c(=O)c3cc(Br)ccc32)c1)N1CCN(C(=O)C2CCCC2)CC1 [Example 87, 6-Bromo-1-(3-(4-(cyclopentylcarbonyl)piperazine-1-carbonyl)benzyl)quinazoline-2,4(1H,3H)-dione] | 27 | 35 | – | –
20 | O=C(c1cccc(Cn2c(=O)[nH]c(=O)c3cc(Br)ccc32)c1)N1CCN(c2ncccn2)CC1 [Example 88, 6-Bromo-1-(3-(4-(pyrimidin-2-yl)piperazine-1-carbonyl)benzyl)quinazoline-2,4(1H,3H)-dione] | 67 | 137 | – | –
21 | O=C(c1cccc(Cn2c(=O)[nH]c(=O)c3cc([N+](=O)[O-])ccc32)c1)N1CCN(C(=O)C2CCCC2)CC1 [Example 90, 1-(3-(4-(Cyclopentylcarbonyl)piperazine-1-carbonyl)benzyl)-6-nitroquinazoline-2,4(1H,3H)-dione] | 4170 | > 10000 | – | –
22 | O=C(c1cccc(Cn2c(=O)[nH]c(=O)c3cc([N+](=O)[O-])ccc32)c1)N1CCN(c2ncccn2)CC1 [Example 91, 6-Nitro-1-(3-(4-(pyrimidin-2-yl)piperazine-1-carbonyl)benzyl)quinazoline-2,4 (1H,3H)-dione] | 1990 | > 10000 | – | –
23 | O=C(c1cccc(Cn2c(=O)[nH]c(=O)c3cc([N+](=O)[O-])ccc32)c1)N1CCN(C(=O)C2CCCCC2)CC1 [Example 92, 1-(3-(4-(Cyclohexylcarbonyl)piperazine-1-carbonyl)benzyl)-6-nitroquinazoline-2,4(1H,3H)-dione] | 2930 | > 10000 | – | –
24 | O=C(c1ccccc1)N1CCN(C(=O)c2ccc(Cn3c(=O)[nH]c(=O)c4ccccc43)cc2)CC1 [Example 93, 1-(4-(4-Benzoylpiperazine-1-carbonyl)benzyl)quinazoline-2,4(1H,3H)-dione] | > 10000 | > 10000 | – | –

Reference: patent publication US9926304B2, “1-(arylmethyl)quinazoline-2,4(1H,3H)-diones as PARP inhibitors and the use thereof” (Impact Therapeutics, Inc., priority 2011, dated 2018)
